# Laboratory results published in US20250051762A1, “PLATFORM USING DNA-ENCODED SMALL MOLECULE LIBRARIES AND RNA SELECTION TO DESIGN SMALL MOLECULES THAT TARGET RNA” (University of Florida Research Foundation, Incorporated, priority 2021, published 2025).
# Assays:
# [1] = target: 5′GAG/3′CCC loop at pri-miR-27a's Drosha site; assay: Binding affinity by microscale thermophoresis (MST), Cy5-labeled RNA; set-up: species or system human
# Method: Binding affinity measurements: Binding affinities were measured by microscale thermophoresis (MST), performed on a Monolith NT.115 system (NanoTemper Technologies) with Cy5-labeled RNAs. These RNAs include: the 5′GAG/3′CCC SEQ ID NO: 16 loop at pri-miR-27a's Drosha site (Sequence:/5′-Cy5/rCrUrGrArGrGrUrGrArArArCrArUrCrCrCrArG SEQ ID NO: 17; Dharmacon), a related internal loop not selected by 9. 5′CAG/3′GCC SEQ ID NO: 17 loop (Sequence:/5′-Cy5/rCrUrCrArGrGrUrGrArArArCrArUrCrCrGrArG SEQ ID NO: 16; Dharmacon), and an RNA in which the loop is mutated to a base pair (Sequence:/5-Cy5/rCrUrGrArGrGrUrGrArArArCrArUrCrUrCrArG SEQ ID NO: 16; Dharmacon).
# Briefly, Cy5-labeled RNA (10 nM) was prepared in 1× Binding Buffer and folded by heating at 60° C. for 5 min and then slowly cooling to room temperature. After cooling, Tween-20 was added to a final concentration of 0.1% (v/v). Compound solutions were prepared separately in 20 μL of 1× Binding Buffer at a final concentration of 5 μM (1% (v/v) DMSO), followed by 1:1 serial dilutions in 1× Binding Buffer. RNA and compound solutions were then mixed 1:1 by volume to a total of 20 μL.
# Samples were incubated for 20 min at room temperature and then loaded into premium capillaries (NanoTemper Tech, Cat #MO-K025). The following parameters were used for MST measurements: 5-20% LED power (adjusted to keep fluorescence intensity between 2000 and 8000), 80% MST power, Laser-On time=30 s, Laser-Off time=25 s. The resulting data were analyzed by calculating the change in thermophoresis as a function of compound concentration and fitted by Equation 1, a one site binding model, in NanoTemper Tech's MST analysis software to yield the dissociation constant (Kd):
# Where F is the concentration of fluorescently labeled RNA; unbound and bound refer to the thermophoresis signal at completely unbound and bound state of RNA, respectively; c is the concentration of the compound; f (c) is the thermophoresis signal at compound concentration of c; and Kd is the dissociation constant.
# ZBTB10 = assay: Western blot of ZBTB10 in MDA-MB-231 cells; assay type: cell-based, human; conditions: relative to β-actin, 48 h
# PP4C = assay: Western blot of PP4C in MDA-MB-231 cells; assay type: cell-based, human; conditions: relative to β-actin, 48 h
# Method: Western Blotting: MDA-MB-231 cells were grown in 6-well plates to ˜80% confluency in complete growth medium and then incubated with 9 at the indicated concentrations for 48 h. Total protein was extracted using M-PER Mammalian Protein Extraction Reagent (Pierce Biotechnology) using the manufacturer's protocol and quantified using a Micro BCA Protein Assay Kit (Pierce Biotechnology). Approximately 50 μg of total protein was separated on a 10% SDS-polyacrylamide gel, and then transferred to a PVDF membrane. The membrane was washed with 1× Tris-buffered saline (TBS) and then blocked in 1×TBST (1×TBS containing 0.1% (v/v) Tween-20) containing 5% (w/v) milk for 1 h at room temperature. […] The membrane was again washed with 1×TBST, and protein expression was quantified using SuperSignal West Pico Chemiluminescent Substrate (Pierce Biotechnology) per the manufacturer's protocol.
# To quantify b-actin expression, used for normalization, the membrane was stripped using 1× Stripping Buffer (200 mM glycine, pH 2.2 and 0.1% SDS) followed by washing in 1×TBST. […] The fold change of the target protein expression (PP4C or PDCD4) was calculated by normalizing its band intensity to b-actin band intensity using ImageJ.
# MDA-MB-231 cells = assay: miRNome profiling of all miRNAs detectable in MDA-MB-231 cells; assay type: cell-based, human; conditions: 1 μM, FDR <1%, P<0.01
smiles,measurement,setting,value
C#CCN(CC(N)=O)C(=O)C[C@H](Cc1c[nH]c2ccccc12)NC(=O)[C@@H]1C[C@H](NC(=O)Cn2c(=O)[nH]c3ccccc3c2=O)CN1 [Compound 9],Kd,[1],90 ± 20 nM
same,ZBTB10 expression,ZBTB10,upregulation
same,PP4C expression,PP4C,upregulation
same,only statistically significant effect across the miRNome,MDA-MB-231 cells,downregulation of miR-27a
